Consider 15 compounds from patent US9249085B2, “Aniline derivatives, their preparation and their therapeutic application” (FOVEA PHARMACEUTICALS, priority 2011, dated 2016).

SMILES strings stand for the structures. Converted amounts (≈) assume the structure as drawn.

Data set [1] addresses recombinant human prostanoid EP2 receptor (Homo sapiens (Human), UniProt P43116). Put plainly: Human prostanoid EP2 receptor cellular functional assay (cAMP, HTRF). The format is cell-based. The conditions noted are these: for EC50: CHO cells expressing recombinant human EP2, cAMP by HTRF, 30 min, 37° C., read-out: In vitro functional assay EP2 (h) EC50; for In vitro functional assay EP2 (h) % response: percent of control specific agonist response (10 μM PGE2). How it is done:
Test 1.2: Human Prostanoid EP2 Receptor Cellular Functional Assay
Human CHO cells expressing the recombinant human prostanoid EP2 receptor were suspended in assay medium (HBSS buffer (Invitrogen) containing 20 mM HEPES (pH7.4) and 500 μM isobutyl-methylxanthine IBMX) and plated out to yield approximately 1×10^4 cells/well in a 96-well. Following this, cells were incubated with agonists for 30 min in the presence of the test compounds. For stimulated control measurements, separate assay wells contain 10 μM PGE2 (control specific agonist). All incubations were carried out at 37° C. in a 5% CO2 atmosphere. Following incubation, the amount of cAMP in each well was determined by HTRF method. The cells are lysed and the fluorescence acceptor (D2-labeled cAMP) and fluorescence donor (anti-cAMP antibody labeled with europium cryptate) are added. After 60 min at room temperature, the fluorescence transfer is measured at λ ex=337 nm and λ em=620 and 665 nm using a microplate reader (Rubystar, BMG).
The cAMP concentration is determined by dividing the signal measured at 665 nm by that measured at 620 nm (ratio).
The standard reference agonist PGE2 was tested at several concentrations to generate a concentration-response curve to determined EC50.
(§1) Analysis and Expression of Results
The results are expressed as a percent of control specific agonist response ((measured specific response/control specific agonist response)×100) obtained in the presence of the test compounds. The EC50 values (concentration producing a half-maximal specific response) were determined by non-linear regression analysis of the concentration-response curves generated with mean replicate values using Hill equation curve fitting (Y=D+[(A−D)/(1+(C/C50)nH)], where Y=specific response, D=minimum specific response, A=maximum specific response, C=compound concentration, and C50=EC50 and nH=slope factor). This analysis was performed using a software developed at Cerep (Hill software) and validated by comparison with data generated by the commercial software SigmaPlot® 4.0 for Windows® (© 1997 by SPSS Inc.).

Data set [2] deals with recombinant human prostanoid EP4 receptor (Homo sapiens (Human), UniProt P35408). Put plainly: Human prostanoid EP4 receptor binding assay ([3H]PGE2 displacement). The conditions noted are these: HEK-293(T) membranes, 0.5 nM [3H]PGE2, 120 min at 22° C.; NC: not calculable; read-out: In vitro potency EP4 (h) IC50. The protocol:
Test 1.1: Human Prostanoid EP4 Receptor Binding Assay
Cell membrane homogenate from Human embryonic kidney HEK-293(T) cells expressing recombinant human prostanoid EP4 receptor was used to perform Prostanoid receptor radioligand binding assays.
The competition reaction was initiated by incubation of membrane protein homogenate (20 μg protein) for 120 min at 22° C. with 0.5 nM [^3H]PGE2 ligand in the absence or presence of the test compound in a buffer containing 10 mM MES/KOH (pH 6.0), 10 mM MgCl2 and 1 mM EDTA.
Non-specific binding was determined in the presence of 10 μM PGE2 (the corresponding non-radioactive prostanoid). Affinity of the compound binding to hEP4 receptor was measured by displacement of the radiolabeled ligand in the presence of varying doses of tested compound.
Incubations were terminated by rapid filtration under vacuum through glass fiber filters (GF/B, Packard) presoaked with 0.3% PEI and washed several times with ice-cold 50 mM Tris-HCl using a 96-sample cell harvester (Unifilter, Packard).
The filters were dried and the residual radioactivity bound to the individual filters determined with addition of scintillation cocktail (Microscint 0, Packard) by a scintillation counter (Topcount, Packard).
The results were expressed as a percent inhibition of the control radioligand specific binding.
The standard reference compound PGE2, was tested in at several concentrations to obtain a competition curve to determined IC50.
as §1
The specific ligand binding to the receptors is defined as the difference between the total binding and the nonspecific binding determined in the presence of an excess of unlabelled ligand. The results are expressed as a percent of control specific binding ((measured specific binding/control specific binding)×100) obtained in the presence of the test compounds. The IC50 values (concentration causing a half-maximal inhibition of control specific binding) and Hill coefficients (nH) were determined by non-linear regression analysis of the competition curves generated with mean replicate values using Hill equation curve fitting (Y=D+[(A−D)/(1+(C/C50)nH)], where Y=specific binding, D=minimum specific binding, A=maximum specific binding, C=compound concentration, C50=IC50, and nH=slope factor). This analysis was performed using a software developed at Cerep (Hill software) and validated by comparison with data generated by the commercial software SigmaPlot® 4.0 for Windows® (© 1997 by SPSS Inc.). The inhibition constants (Ki) were calculated using the Cheng Prusoff equation (Ki=IC50/(1+(L/KD)), where L=concentration of radioligand in the assay, and KD=affinity of the radioligand for the receptor). A scatchard plot is used to determine the Kd.

A short description of data set [3]: Solubility at equilibrium. In kind it is physicochemical. The conditions noted are these: thermodynamic from solid; in the diluent, room temperature, n=1, HPLC quantification. How it is done:
Solubility of the test materials was evaluated on n=1 trial, following the procedure below:
2.5 mg of each compound for solubility testing were dissolved in 5 mL of the diluent, an initial concentration of 500 ug/mL. The mixture was first vortexed for 15 seconds to allow a good wetting of the API, then sonicated for 5 minutes to promote solubilisation. The vortex/sonication cycle was repeated 3 times. The suspension was stirred at room temperature using a magnetic stirrer at 300 rpm. This mixture is observed at 4 h, 24 h and 48 h to determine if the test compound has dissolved. At each time point if the compound is completely solubilised a further 5 mg of the test compound is added and the process repeated.
When no more test compound will dissolve in the diluent, an aliquot of 0.5 mL of the suspension was withdrawn and centrifuged 3×2 min at 13400 rpm. The supernatant for HPLC quantification was filtered using 0.2 μm Pall Aerodisc Nylon 13 mm membrane and quantified by comparing to the calibration curve, using the method: column: Nucleodur C18 ISIS 3 μm 4.6×125 mm, Mobile Phase (CH3COOH 0.05% in H2O and ACN), Flow rate: 1 ml/min, Wavelength: λ=240 nm (IIa and IIc) or […] (IId), Injected volume: 10 μl, Gradient of concentration: from 30% B to 100% B in 6 min.

Data set [4] has as its system Laser-Induced Hypertensive Cynomolgus Monkey. Briefly: Intraocular pressure in laser-induced hypertensive cynomolgus monkey. In kind it is in vivo. The note with it: 0.01% topical, 50 μl drop to glaucomatous eye once daily for 5 days; FIG. 1. How it is done: Laser-Induced Hypertensive Cynomolgus Monkey
Ten adult female cynomolgus monkeys, each weighing 3-5 kg, in which glaucoma had been induced unilaterally by diode laser photocoagulation of the mid-trabecular meshwork, were used in this study.
Intraocular pressure (IOP) was measured at 0 hr (before drug administration) and then hourly until 6 hrs after drug administration on one baseline day, one vehicle-treatment day, and treatment days 1, 3, and 5 with 0.01% of compound II(d).
Compound II(d) was tested in two groups of 4 monkeys for a total of 8 monkeys. Following one baseline day (untreated) and one vehicle-treatment day (50 μl (25 μl×2), drop of vehicle to the glaucomatous eye at 9:30 (a 50 μl drop (25 μl×2) of compound (II(d)) were topically applied to the glaucomatous eye only once daily at 9:30 am for 5 consecutive days.
Slit-lamp examination for the detection of aqueous humor flare and cells was performed in a dark room before drug administration and at 1, 3 and 5 hrs after dosing on baseline day and at the same times on treatment days 1, 3 and 5.
Two-tailed paired and unpaired t test and the ANOVA test were used for statistical analysis.

recombinant human prostanoid EP2 receptor, sequence (P43116 whole entry): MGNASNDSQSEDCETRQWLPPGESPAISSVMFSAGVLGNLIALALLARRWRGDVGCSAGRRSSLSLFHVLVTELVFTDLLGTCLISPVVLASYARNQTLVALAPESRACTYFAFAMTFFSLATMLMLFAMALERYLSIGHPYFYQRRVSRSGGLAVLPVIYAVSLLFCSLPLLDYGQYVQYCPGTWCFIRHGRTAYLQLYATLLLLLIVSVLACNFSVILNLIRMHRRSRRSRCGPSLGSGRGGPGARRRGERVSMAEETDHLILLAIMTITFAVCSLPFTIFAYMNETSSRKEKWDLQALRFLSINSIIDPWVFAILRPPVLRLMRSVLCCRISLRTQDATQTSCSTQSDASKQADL
recombinant human prostanoid EP4 receptor, sequence (P35408 whole entry): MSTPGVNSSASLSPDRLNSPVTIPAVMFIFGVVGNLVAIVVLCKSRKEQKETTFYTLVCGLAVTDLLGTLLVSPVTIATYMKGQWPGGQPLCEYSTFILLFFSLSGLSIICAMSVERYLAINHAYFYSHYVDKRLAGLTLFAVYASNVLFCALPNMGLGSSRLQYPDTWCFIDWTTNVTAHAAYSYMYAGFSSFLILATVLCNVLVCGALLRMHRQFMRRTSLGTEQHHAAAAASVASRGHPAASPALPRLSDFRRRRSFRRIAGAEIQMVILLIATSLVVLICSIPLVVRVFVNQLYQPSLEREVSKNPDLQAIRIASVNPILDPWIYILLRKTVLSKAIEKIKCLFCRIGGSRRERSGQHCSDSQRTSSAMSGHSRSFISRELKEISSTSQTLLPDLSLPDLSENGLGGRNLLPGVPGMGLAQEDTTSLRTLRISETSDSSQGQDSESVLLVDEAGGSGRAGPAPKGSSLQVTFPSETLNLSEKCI

For the compound `Cc1c(F)cc(-c2cccc(F)c2)cc1CNc1c(F)ccc(OCC(=O)O)c1F` [I(aa), 2-[2,4-difluoro-3-[[3-fluoro-5-(3-fluorophenyl)-2-methylphenyl]methylamino]phenoxy]acetic acid], in data set [1], the EC50 (as a rule, the concentration that produces a half-maximal response) was 3 nM and the “In vitro functional assay EP2 (h) % response” value came to 97%. In data set [2], the IC50 – broadly, the concentration at which inhibition is half-maximal – is more than 300 nM.

As for `Cc1cc(-c2cccc(F)c2)cc(CNc2c(F)ccc(OCC(=O)O)c2C)c1F` [I(ad), 2-[4-fluoro-3-[[2-fluoro-5-(3-fluorophenyl)-3-methyl-phenyl]methylamino]-2-methyl-phenoxy]acetic acid], in data set [1], the EC50 came out at 2 nM and the “In vitro functional assay EP2 (h) % response” value turned out to be 101%. For the same compound, in data set [2], the IC50 was more than 300 nM.

As for `Cc1cc(-c2cccc(F)c2)cc(CNc2c(C)ccc(OCC(=O)O)c2C)c1F` [I(ag), 2-[3-[[2-fluoro-5-(3-fluorophenyl)-3-methyl-phenyl]methylamino]-2,4-dimethyl-phenoxy]acetic acid], in data set [1], the EC50 was less than 1 nM and the “In vitro functional assay EP2 (h) % response” value was determined as 85%. For the same compound, the IC50 in data set [2] is more than 300 nM.

With `Cc1cc(-c2cccc(F)c2)cc(CNc2c(C)ccc(OCC(=O)O)c2C)c1C` [I(ak), 2-[3-[[5-(3-fluorophenyl)-2,3-dimethyl-phenyl]methylamino]-2,4-dimethyl-phenoxy]acetic acid], in data set [1], the EC50 was 2 nM and the “In vitro functional assay EP2 (h) % response” value is 113%. Further, the IC50 in data set [2] is more than 300 nM.

On to `COc1c(C)cc(-c2cccc(F)c2)cc1CNc1c(C)ccc(OCC(=O)O)c1C` [I(al), 2-[3-[[5-(3-fluorophenyl)-2-methoxy-3-methyl-phenyl]methylamino]-2,4-dimethyl-phenoxy]acetic acid], for which, in data set [1], the EC50 was 0.9 nM and the “In vitro functional assay EP2 (h) % response” value came to 70%. Also, the IC50 in data set [2] is more than 300 nM.

Turning to `Cc1cc(-c2cccc(F)c2)cc(CNc2c(F)ccc(OCC(=O)O)c2C)c1C` [I(at), 2-[4-fluoro-3-[[5-(3-fluorophenyl)-2,3-dimethyl-phenyl]methylamino]-2-methyl-phenoxy]acetic acid], in data set [1], the EC50 came out at 6 nM and the “In vitro functional assay EP2 (h) % response” value was determined as 91%. The IC50 in data set [2] is more than 300 nM.

Turning to `Cc1ccc(OCC(=O)O)c(C)c1NCc1cc(-c2cccc(F)c2)cc(F)c1C` [I(aw), 2-[3-[[3-fluoro-5-(3-fluorophenyl)-2-methyl-phenyl]methylamino]-2,4-dimethyl-phenoxy]acetic acid], in data set [1], the concentration for a half-maximal effect (EC50) came out at 3 nM and the “In vitro functional assay EP2 (h) % response” value is 80%. In addition, the IC50 in data set [2] was more than 300 nM.

On to `O=C(O)COc1ccc(Cl)c(NCc2cc(-c3cccc(F)c3)ccc2F)c1F` [I(k), 2-[4-Chloro-2-fluoro-3-[[2-fluoro-5-(3-fluorophenyl)phenyl]methylamino]phenoxy]acetic acid], for which, in data set [1], the EC50 was found to be 73 nM and the “In vitro functional assay EP2 (h) % response” value worked out at 77%. In addition, the IC50 in data set [2] was more than 300 nM.

On to `O=C(O)COc1ccc(Cl)c(NCc2cc(-c3cccc(F)c3)ccc2F)c1Cl` [I(r), 2-[2,4-Dichloro-3-[[2-fluoro-5-(3-fluorophenyl)phenyl]methylamino]phenoxy]acetic acid], for which, in data set [1], the EC50 is 45 nM and the “In vitro functional assay EP2 (h) % response” value amounted to 78%. Besides, the IC50 in data set [2] was more than 300 nM.

For `Cc1c(-c2cccc(F)c2)ccc(F)c1CNc1c(F)ccc(OCC(=O)O)c1F` [I(y), 2-[2,4-difluoro-3-[[6-fluoro-3-(3-fluorophenyl)-2-methyl-phenyl]methylamino]phenoxy]acetic acid], in data set [1], the EC50 was 130 nM and the “In vitro functional assay EP2 (h) % response” value is on record as 62%.

In the case of `NC(=O)c1cc(CNc2c(F)ccc(OCC(=O)O)c2F)cc(-c2cccc(F)c2)c1` [I(z), 2-[3-[[3-carbamoyl-5-(3-fluorophenyl)phenyl]methylamino]-2,4-difluoro-phenoxy]acetic acid], in data set [1], the EC50 was 4 nM and the “In vitro functional assay EP2 (h) % response” value is 53%.

Take `CCOC(=O)COc1ccc(F)c(NCc2cc(-c3cccc(F)c3)ccc2F)c1F` [II(a), ethyl 2-[2,4-difluoro-3-[[2-fluoro-5-(3-fluorophenyl)phenyl]methylamino]phenoxy]acetate]: the concentration in solution in data set [3] (solubility) came to 8120 µg/mL (≈ 18.7 mM).

As for `COC(=O)COc1ccc(F)c(NCc2cc(-c3cccc(F)c3)ccc2F)c1F` [II(c), Methyl 2-[2,4-difluoro-3-[[2-fluoro-5-(3-fluorophenyl)phenyl]methylamino]phenoxy]acetate], the solubility (as a rule, the dissolved amount per volume that the medium holds) in data set [3] was found to be 6780 µg/mL (≈ 16.2 mM).

Regarding `CC(C)OC(=O)COc1ccc(F)c(NCc2cc(-c3cccc(F)c3)ccc2F)c1F` [II(d), Isopropyl 2-[2,4-difluoro-3-[[2-fluoro-5-(3-fluorophenyl)phenyl]methylamino]phenoxy]acetate], in data set [4], the “overall IOP reduction” value turned out to be 22%. Also, in data set [3], the solubility was determined as 711 µg/mL (≈ 1.59 mM). Also, in data set [1], the EC50 is more than 300 nM and the “In vitro functional assay EP2 (h) % response” value was 44%.

Consider `O=C(O)COc1cccc(CN(Cc2ccc(-n3cccn3)cc2)S(=O)(=O)c2cccnc2)c1` [PF-04217329, taprenepag, reference compound], for which, in data set [3], the concentration in solution (solubility) came to 542 µg/mL (≈ 1.13 mM).
